The values that follow are results of earlier work, collected in PMC6151732, “A New Noncanonical Anionic Peptide That Translocates a Cellular Blood–Brain Barrier Model” (Molecules : A Journal of Synthetic Chemistry and Natural …, 2017).

The subject of the data set is brain. On the procedure: Dengue virus type-2 capsid (DEN2C) protein-derived membrane-active peptides have been thoroughly studied by our group. […] An additional study was performed using the four α-helical domains of the DEN2C protein (α1, α2, α3 and α4) to identify trans-BBB peptides. […] PepH3, a hydrophobic peptide, is able to transcytose across the cell, while other peptides accumulate inside the endothelial membrane ...

As for AGILKRW [PepH3], the Brain uptake entry was “high brain uptake”.
